Measurements: patent US20200032271A1, “COMBINATION THERAPY WITH LIPOSOMAL ANTISENSE OLIGONUCLEOTIDES” (Bio-Path Holdings, Inc., priority 2016, published 2020)
Marks after values point to notes of the source that are not given here. [PEt] = P-ethoxy (ethyl phosphotriester) internucleoside linkage

Assay: Adverse events in study 2003-0578 (NCI CTCAE grading)
[1] = MDS at enrollment (n = 4), all treatment groups

Substance: BP1001: liposome-incorporated P-ethoxy antisense oligodeoxynucleotide (5′-ATATTTGGCGATGGCTTC-3′, SEQ ID NO: 1) specific to grb2 mRNA, in neutral DOPC liposomes (DNA, all [PEt], methylation of C not given here; incorporated in neutral DOPC liposomes)
- Hyponatremia ≥Grade 3, number of patients [1]: 0
- Hypotension ≥Grade 3, number of patients [1]: 0
- Hypovolemia ≥Grade 3, number of patients [1]: 0
- Hypoxia ≥Grade 3, number of patients [1]: 0
- Investigations ≥Grade 3, number of patients [1]: 0
- Leukocytosis ≥Grade 3, number of patients [1]: 0
- Metabolism and nutritional disorders ≥Grade 3, number of patients [1]: 0
- Multi-organ failure ≥Grade 3, number of patients [1]: 0
- Musculoskeletal and connective tissue disorders ≥Grade 3, number of patients [1]: 0
- Neoplasms benign, malignant, and unspecified (incl. cysts and polyps) ≥Grade 3, number of patients [1]: 0
- Patients with AEs ≥Grade 3, number of patients [1]: 1
- Penile Pain ≥Grade 3, number of patients [1]: 0
- Platelet count decreased ≥Grade 3, number of patients [1]: 0
- Pleural Effusions ≥Grade 3, number of patients [1]: 0
- Pneumonia ≥Grade 3, number of patients [1]: 0
- Psychiatric disorders ≥Grade 3, number of patients [1]: 0
- Renal and urinary disorders ≥Grade 3, number of patients [1]: 0
- Reproductive system and breast disorders ≥Grade 3, number of patients [1]: 0
- Respiratory distress ≥Grade 3, number of patients [1]: 0
- Respiratory failure ≥Grade 3, number of patients [1]: 0
- Respiratory, thoracic, and mediastinal disorders ≥Grade 3, number of patients [1]: 0
- Tumor lysis syndrome ≥Grade 3, number of patients [1]: 0
- Vascular disorders ≥Grade 3, number of patients [1]: 0
- Blood and lymphatic system disorders ≥Grade 3, total events (all patients (N = 39)): 12
- Blood and lymphatic system disorders ≥Grade 3, total patients (all patients (N = 39)): 11
- Cardiac disorders ≥Grade 3, total events (all patients (N = 39)): disorders (3/3)
- Cardiac disorders ≥Grade 3, total patients (all patients (N = 39)): disorders (3/3)
- General disorders and administration site conditions ≥Grade 3, total events (all patients (N = 39)): (5/5)
- General disorders and administration site conditions ≥Grade 3, total patients (all patients (N = 39)): (5/5)
- Hepatobiliary disorders ≥Grade 3, total events (all patients (N = 39)): disorders (2/2)
- Hepatobiliary disorders ≥Grade 3, total patients (all patients (N = 39)): disorders (2/2)
- Investigations ≥Grade 3, total events (all patients (N = 39)): 3
- Investigations ≥Grade 3, total patients (all patients (N = 39)): 2
- Metabolism and nutritional disorders ≥Grade 3, total events (all patients (N = 39)): 19
- Metabolism and nutritional disorders ≥Grade 3, total patients (all patients (N = 39)): 12
- Neoplasms benign, malignant, and unspecified (incl. cysts and polyps) ≥Grade 3, total events (all patients (N = 39)): polyps) (2/2)
- Neoplasms benign, malignant, and unspecified (incl. cysts and polyps) ≥Grade 3, total patients (all patients (N = 39)): polyps) (2/2)
- Patients with AEs ≥Grade 3, total events (all patients (N = 39)): 91
- Patients with AEs ≥Grade 3, total patients (all patients (N = 39)): 28
- Renal and urinary disorders ≥Grade 3, total events (all patients (N = 39)): disorders (4/4)
- Renal and urinary disorders ≥Grade 3, total patients (all patients (N = 39)): disorders (4/4)
- Respiratory, thoracic, and mediastinal disorders ≥Grade 3, total events (all patients (N = 39)): disorders (7/7)
- Respiratory, thoracic, and mediastinal disorders ≥Grade 3, total patients (all patients (N = 39)): disorders (7/7)
- Vascular disorders ≥Grade 3, total events (all patients (N = 39)): disorders (2/2)
- Vascular disorders ≥Grade 3, total patients (all patients (N = 39)): disorders (2/2)
- AML progression, number of patients (monotherapy 5 mg/m^2 (n = 13)): 10
- Abdominal Pain ≥Grade 3, number of patients (monotherapy 5 mg/m^2 (n = 13)): 0
- Acidosis ≥Grade 3, number of patients (monotherapy 5 mg/m^2 (n = 13)): 2
- Acute kidney injury ≥Grade 3, number of patients (monotherapy 5 mg/m^2 (n = 13)): 3
- Asthenia ≥Grade 3, number of patients (monotherapy 5 mg/m^2 (n = 13)): 1
- Back Pain ≥Grade 3, number of patients (monotherapy 5 mg/m^2 (n = 13)): 0
- Blood and lymphatic system disorders ≥Grade 3, number of patients (monotherapy 5 mg/m^2 (n = 13)): 5
- Cardiac disorders ≥Grade 3, number of patients (monotherapy 5 mg/m^2 (n = 13)): 3
- Cataract ≥Grade 3, number of patients (monotherapy 5 mg/m^2 (n = 13)): 0
- Dyspnea ≥Grade 3, number of patients (monotherapy 5 mg/m^2 (n = 13)): 0
- Extremity Lower Edema ≥Grade 3, number of patients (monotherapy 5 mg/m^2 (n = 13)): 0
- Eye disorders ≥Grade 3, number of patients (monotherapy 5 mg/m^2 (n = 13)): 0
- Febrile neutropenia ≥Grade 3, number of patients (monotherapy 5 mg/m^2 (n = 13)): 2
- Gastrointestinal disorders ≥Grade 3, number of patients (monotherapy 5 mg/m^2 (n = 13)): 0
- General disorders and administration site conditions ≥Grade 3, number of patients (monotherapy 5 mg/m^2 (n = 13)): 3
- Hallucinations ≥Grade 3, number of patients (monotherapy 5 mg/m^2 (n = 13)): 0
- Heart failure ≥Grade 3, number of patients (monotherapy 5 mg/m^2 (n = 13)): 3
- Hepatic failure ≥Grade 3, number of patients (monotherapy 5 mg/m^2 (n = 13)): 1
- Hepatobiliary disorders ≥Grade 3, number of patients (monotherapy 5 mg/m^2 (n = 13)): 1
- Hypocalcemia ≥Grade 3, number of patients (monotherapy 5 mg/m^2 (n = 13)): 1
- Hypoglycemia ≥Grade 3, number of patients (monotherapy 5 mg/m^2 (n = 13)): 2
- Hypokalemia ≥Grade 3, number of patients (monotherapy 5 mg/m^2 (n = 13)): 1
- Hyponatremia ≥Grade 3, number of patients (monotherapy 5 mg/m^2 (n = 13)): 1
- Hypotension ≥Grade 3, number of patients (monotherapy 5 mg/m^2 (n = 13)): 2
- Hypovolemia ≥Grade 3, number of patients (monotherapy 5 mg/m^2 (n = 13)): 0
- Hypoxia ≥Grade 3, number of patients (monotherapy 5 mg/m^2 (n = 13)): 1
- Investigations ≥Grade 3, number of patients (monotherapy 5 mg/m^2 (n = 13)): 1
- Leukocytosis ≥Grade 3, number of patients (monotherapy 5 mg/m^2 (n = 13)): 3
- Metabolism and nutritional disorders ≥Grade 3, number of patients (monotherapy 5 mg/m^2 (n = 13)): 12
- Multi-organ failure ≥Grade 3, number of patients (monotherapy 5 mg/m^2 (n = 13)): 2
- Musculoskeletal and connective tissue disorders ≥Grade 3, number of patients (monotherapy 5 mg/m^2 (n = 13)): 0
- Neoplasms benign, malignant, and unspecified (incl. cysts and polyps) ≥Grade 3, number of patients (monotherapy 5 mg/m^2 (n = 13)): 0
- Patients with AEs ≥Grade 3, number of patients (monotherapy 5 mg/m^2 (n = 13)): 10
- Penile Pain ≥Grade 3, number of patients (monotherapy 5 mg/m^2 (n = 13)): 0
- Platelet count decreased ≥Grade 3, number of patients (monotherapy 5 mg/m^2 (n = 13)): 1
- Pneumonia ≥Grade 3, number of patients (monotherapy 5 mg/m^2 (n = 13)): 0
- Psychiatric disorders ≥Grade 3, number of patients (monotherapy 5 mg/m^2 (n = 13)): 0
- Renal and urinary disorders ≥Grade 3, number of patients (monotherapy 5 mg/m^2 (n = 13)): 3
- Reproductive system and breast disorders ≥Grade 3, number of patients (monotherapy 5 mg/m^2 (n = 13)): 0
- Respiratory distress ≥Grade 3, number of patients (monotherapy 5 mg/m^2 (n = 13)): 1
- Respiratory failure ≥Grade 3, number of patients (monotherapy 5 mg/m^2 (n = 13)): 2
- Respiratory, thoracic, and mediastinal disorders ≥Grade 3, number of patients (monotherapy 5 mg/m^2 (n = 13)): 2
- Tumor lysis syndrome ≥Grade 3, number of patients (monotherapy 5 mg/m^2 (n = 13)): 3
- Vascular disorders ≥Grade 3, number of patients (monotherapy 5 mg/m^2 (n = 13)): 2
- AML progression, number of patients (monotherapy 10 mg/m^2 (n = 6)): 4
- Abdominal Pain ≥Grade 3, number of patients (monotherapy 10 mg/m^2 (n = 6)): 0
- Acidosis ≥Grade 3, number of patients (monotherapy 10 mg/m^2 (n = 6)): 1
- Acute kidney injury ≥Grade 3, number of patients (monotherapy 10 mg/m^2 (n = 6)): 0
- Asthenia ≥Grade 3, number of patients (monotherapy 10 mg/m^2 (n = 6)): 0
- Back Pain ≥Grade 3, number of patients (monotherapy 10 mg/m^2 (n = 6)): 0
- Blood and lymphatic system disorders ≥Grade 3, number of patients (monotherapy 10 mg/m^2 (n = 6)): 2
- Cardiac disorders ≥Grade 3, number of patients (monotherapy 10 mg/m^2 (n = 6)): 0
- Cataract ≥Grade 3, number of patients (monotherapy 10 mg/m^2 (n = 6)): 0
- Dyspnea ≥Grade 3, number of patients (monotherapy 10 mg/m^2 (n = 6)): 0
- Extremity Lower Edema ≥Grade 3, number of patients (monotherapy 10 mg/m^2 (n = 6)): 0
- Eye disorders ≥Grade 3, number of patients (monotherapy 10 mg/m^2 (n = 6)): 0
- Febrile neutropenia ≥Grade 3, number of patients (monotherapy 10 mg/m^2 (n = 6)): 1^a
- Gastrointestinal disorders ≥Grade 3, number of patients (monotherapy 10 mg/m^2 (n = 6)): 0
- General disorders and administration site conditions ≥Grade 3, number of patients (monotherapy 10 mg/m^2 (n = 6)): 1
- Hallucinations ≥Grade 3, number of patients (monotherapy 10 mg/m^2 (n = 6)): 0
- Heart failure ≥Grade 3, number of patients (monotherapy 10 mg/m^2 (n = 6)): 0
- Hepatic failure ≥Grade 3, number of patients (monotherapy 10 mg/m^2 (n = 6)): 1
- Hepatobiliary disorders ≥Grade 3, number of patients (monotherapy 10 mg/m^2 (n = 6)): 1
- Hypocalcemia ≥Grade 3, number of patients (monotherapy 10 mg/m^2 (n = 6)): 0
- Hypoglycemia ≥Grade 3, number of patients (monotherapy 10 mg/m^2 (n = 6)): 0
- Hypokalemia ≥Grade 3, number of patients (monotherapy 10 mg/m^2 (n = 6)): 1
- Hyponatremia ≥Grade 3, number of patients (monotherapy 10 mg/m^2 (n = 6)): 0
- Hypotension ≥Grade 3, number of patients (monotherapy 10 mg/m^2 (n = 6)): 0
